How the values were obtained:
Assay type in all cases: in vivo
[1] = system: Brassica napus (winter rape, BRSNW); assay: Greenhouse postemergence herbicidal effect, visual injury 20-22 d after spraying, winter rape (BRSNW); details: BRSNW
Excerpt: (§1) Seeds of the desired test plant species were planted in a 90:10% v/v (volume/volume) mixture of PRO-MIX® BX (Premier Tech Horticulture, Quakertown, Pa., USA) and PROFILE® GREENS GRADE™ (Profile Products LLC, Buffalo Grove, Ill., USA) planting mixture, which typically has a pH of 5.2 to 6.2 and an organic matter content of at least 50 percent, in plastic pots with a surface area of 103.2 square centimeters (cm^2). In some aspects, to ensure good germination and healthy plants, a fungicide treatment and/or other chemical or physical treatment was applied. The plants were grown for 7-36 days (d) in a greenhouse with an approximate 14-hour (h) photoperiod which was maintained at about 23° C. during the day and 22° C. during the night. Nutrients and water were added on a regular basis and supplemental lighting was provided with overhead metal halide 1000-Watt lamps as necessary. The plants were employed for testing when they reached the second or third true leaf stage.
(§2) Emulsifiable concentrates of each of each pyridine carboxylate herbicide (Compound A or Compound B) were prepared at 100 grams acid equivalent per liter (g ae/L). The emulsifiable concentrates also included a safener, cloquintocet-mexyl, at 120 grams active ingredient per liter (g ai/L). An aliquot of each emulsifiable concentrate was placed in a 25 mL glass vial and diluted with an aqueous mixture of 1.25% (v/v) ACTIROB® B esterified rapeseed oil (Bayer Crop Science, Research Triangle Park, N.C., USA) or MSO® Concentrate with LECI-TECH® methylated soybean oil (Loveland Products, Loveland, Colo., USA) to obtain concentrated stock solutions at the highest application rate for each herbicide, based upon a 12 milliliter (mL) application volume at a rate of 187 liters per hectare (L/ha). The concentrated stock solutions were further diluted with an aqueous mixture of 1.25% v/v ACTIROB® B or MSO® Concentrate with LECI-TECH® to obtain stock solutions at reduced application rates for each herbicide. Spray solutions of the herbicide combinations (Compound A or Compound B plus VLCFA synthesis inhibitor herbicide) were prepared by adding weighed amounts or aliquots of the VLCFA synthesis inhibitor herbicide to the stock solutions of Compound A or Compound B to form 12-mL spray solutions in two-way combinations.
(§3) The spray solutions were applied to the plant material with an overhead Mandel track sprayer equipped with 8002E nozzles calibrated to deliver 187 L/ha over an application area of 0.503 square meters (m^2) at a spray height of 18 inches ([…] (cm)) above the average plant canopy. Control plants were sprayed in the same manner with the solvent blank. All pyridine carboxylate herbicide (component a) application rates are given as “g ae/ha” and all VLCFA synthesis inhibitor herbicide (component b) application rates are given as “g ai/ha.”
(§4) The treated plants and control plants were placed in a greenhouse as described above and watered by sub-irrigation to prevent wash-off of the test compounds. After 20-22 d, the condition of the test plants as compared with that of the control plants was determined visually and scored on a scale of 0 to 100 percent where 0 corresponds to no injury and 100 corresponds to complete kill.

[2] = system: Polygonum convolvulus (wild buckwheat, POLCO); assay: Greenhouse postemergence herbicidal effect, visual injury 20-22 d after spraying, wild buckwheat (POLCO); details: POLCO
Excerpt: as §1, §2, §3, §4

[3] = system: Sinapis arvensis (wild mustard, SINAR); assay: Greenhouse postemergence herbicidal effect, visual injury 20-22 d after spraying, wild mustard (SINAR); details: SINAR
Excerpt: as §1, §2, §3, §4

[4] = system: Salsola kali (Russian thistle, SASKR); assay: Greenhouse postemergence herbicidal effect, visual injury 20-22 d after spraying, Russian thistle (SASKR); details: SASKR
Excerpt: as §1, §2, §3, §4

[5] = system: Kochia scoparia (kochia, KCHSC); assay: Greenhouse postemergence herbicidal effect, visual injury 20-22 d after spraying, kochia (KCHSC); details: KCHSC
Excerpt: as §1, §2, §3, §4

[6] = system: Chenopodium album L. (common lambsquarters, CHEAL); assay: Greenhouse postemergence herbicidal effect, visual injury 20-22 d after spraying, common lambsquarters (CHEAL)
Excerpt: as §1, §2, §3, §4

[7] = system: Amaranthus retroflexus (pigweed, AMARE); assay: Greenhouse postemergence herbicidal effect, visual injury 20-22 d after spraying, pigweed (AMARE)
Excerpt: as §1, §2, §3, §4

[8] = system: Matricaria chamomilla (wild chamomile, MATCH); assay: Greenhouse postemergence herbicidal effect, visual injury 20-22 d after spraying, wild chamomile (MATCH); details: MATCH
Excerpt: as §1, §2, §3, §4

[9] = system: Cirsium arvense (Canadian thistle, CIRAR); assay: Greenhouse postemergence herbicidal effect, visual injury 20-22 d after spraying, Canadian thistle (CIRAR); details: CIRAR
Excerpt: as §1, §2, §3, §4

[10] = system: Triticum aestivum (spring wheat, TRZAS); assay: Greenhouse postemergence crop phytotoxicity, visual injury 20-22 d after spraying, spring wheat (TRZAS); details: TRZAS
Excerpt: as §1, §2, §3, §4

[11] = system: Hordeum vulgare (spring barley, HORVS); assay: Greenhouse postemergence crop phytotoxicity, visual injury 20-22 d after spraying, spring barley (HORVS); details: HORVS
Excerpt: as §1, §2, §3, §4

[12] = system: Brassica napus (spring rape, BRSNN); assay: Greenhouse postemergence herbicidal effect, visual injury 20-22 d after spraying, spring rape (BRSNN); details: Mefenacet 50 g/ha alone
Excerpt: as §1, §2, §3, §4

`CCCCOCN(C(=O)CCl)c1c(CC)cccc1CC` [Butachlor, N-(butoxymethyl)-2-chloro-N-(2,6-diethylphenyl) acetamide] was tested, and the “% visual injury Obs” value ([1]; Butachlor 450 g/ha alone) was 0%, the “% visual injury Obs” value ([2]; Butachlor 450 g/ha alone) was 0% and the “% visual injury Obs” value ([3]; Butachlor 450 g/ha alone) was 0%. The “% visual injury Obs” value ([4]; Butachlor 450 g/ha alone) was 0%, the “% visual injury Obs” value ([5]; Butachlor 450 g/ha alone) was 0% and the “% visual injury Obs” value ([6]; Butachlor 450 g/ha alone) was 0%. For the same molecule, the “% visual injury Obs” value ([7]; Butachlor 450 g/ha alone) was 0%, the “% visual injury Obs” value ([8]; Butachlor 450 g/ha alone) was 5% and the “% visual injury Obs” value ([9]; Butachlor 450 g/ha alone) was 0%.
For `CCN(C(=O)n1nnn(-c2ccccc2Cl)c1=O)C1CCCCC1` [Fentrazamide, 4-(2-chlorophenyl)-N-cyclohexyl-N-ethyl-4,5-dihydro-5-oxo-1H-tetrazole-1-carboxamide], the “% visual injury Obs” value ([1]; Fentrazamide 200 g/ha alone) was 0%, the “% visual injury Obs” value ([2]; Fentrazamide 200 g/ha alone) was 5% and the “% visual injury Obs” value ([3]; Fentrazamide 200 g/ha alone) was 0%. The “% visual injury Obs” value ([4]; Fentrazamide 200 g/ha alone) was 0%, the “% visual injury Obs” value ([5]; Fentrazamide 200 g/ha alone) was 0% and the “% visual injury Obs” value ([6]; Fentrazamide 200 g/ha alone) was 0%. The “% visual injury Obs” value ([7]; Fentrazamide 200 g/ha alone) was 0%, the “% visual injury Obs” value ([8]; Fentrazamide 200 g/ha alone) was 0% and the “% visual injury Obs” value ([9]; Fentrazamide 200 g/ha alone) was 0%. For the same molecule, the “% visual injury Obs” value ([10]; Fentrazamide 200 g/ha alone) was 0% and the “% visual injury Obs” value ([11]; Fentrazamide 200 g/ha alone) was 0%.
In the case of `CN(C(=O)COc1nc2ccccc2s1)c1ccccc1` [Mefenacet, 2-(2-benzothiazolyloxy)-N-methyl-N-phenylacetamide], the “% visual injury Obs” value ([2]; Mefenacet 50 g/ha alone) is reported as 0%, the “% visual injury Obs” value ([3]; Mefenacet 50 g/ha alone) is reported as 0% and the “% visual injury Obs” value ([4]; Mefenacet 50 g/ha alone) is reported as 0%. For the same molecule, the “% visual injury Obs” value ([5]; Mefenacet 50 g/ha alone) was 0%, the “% visual injury Obs” value ([6]; Mefenacet 50 g/ha alone) was 0% and the “% visual injury Obs” value ([8]; Mefenacet 50 g/ha alone) was 0%. The “% visual injury Obs” value [12] was 5%.
For `CCOCCN(C(=O)CCl)C(=C(C)C)c1ccccc1` [Pethoxamid, 2-chloro-N-(2-ethoxyethyl)-N-(2-methyl-1-phenyl-1-propen-1-yl)acetamide], the “% visual injury Obs” value ([1]; Pethoxamid 600 g/ha alone) was 0%, the “% visual injury Obs” value ([2]; Pethoxamid 600 g/ha alone) was 0% and the “% visual injury Obs” value ([3]; Pethoxamid 600 g/ha alone) was 0%. The “% visual injury Obs” value ([4]; Pethoxamid 600 g/ha alone) was 0%, the “% visual injury Obs” value ([5]; Pethoxamid 600 g/ha alone) was 0% and the “% visual injury Obs” value ([6]; Pethoxamid 600 g/ha alone) was 0%. For the same molecule, the “% visual injury Obs” value ([7]; Pethoxamid 600 g/ha alone) was 0%, the “% visual injury Obs” value ([8]; Pethoxamid 600 g/ha alone) was 0% and the “% visual injury Obs” value ([9]; Pethoxamid 600 g/ha alone) was 0%. The “% visual injury Obs” value ([10]; Pethoxamid 600 g/ha alone) was 0% and the “% visual injury Obs” value ([11]; Pethoxamid 600 g/ha alone) was 0%.
In the case of `Cn1nc(C(F)(F)F)c(CS(=O)(=O)C2=NOC(C)(C)C2)c1OC(F)F` [Pyroxasulfone, 3-[[[5-(difluoromethoxy)-1-methyl-3-(trifluoromethyl)-1H-pyrazol-4-yl]methyl]sulfonyl]-4,5-dihydro-5,5-dimethylisoxazole], the “% visual injury” value ([1]; Pyroxasulfone 100 g/ha alone) is reported as 5%, the “% visual injury” value ([2]; Pyroxasulfone 100 g/ha alone) is reported as 0% and the “% visual injury” value ([3]; Pyroxasulfone 100 g/ha alone) is reported as 28%. For the same molecule, the “% visual injury” value ([4]; Pyroxasulfone 100 g/ha alone) was 10%, the “% visual injury” value ([5]; Pyroxasulfone 100 g/ha alone) was 0% and the “% visual injury” value ([6]; Pyroxasulfone 100 g/ha alone) was 0%. For the same molecule, the “% visual injury” value ([7]; Pyroxasulfone 100 g/ha alone) was 5%, the “% visual injury” value ([8]; Pyroxasulfone 100 g/ha alone) was 0% and the “% visual injury” value ([9]; Pyroxasulfone 100 g/ha alone) was 0%.
With S-Metolachlor the “% visual injury Obs” value ([1]; S-Metolachlor 500 g/ha alone) was 0%, the “% visual injury Obs” value ([2]; S-Metolachlor 500 g/ha alone) was 0% and the “% visual injury Obs” value ([3]; S-Metolachlor 500 g/ha alone) was 0%. For the same molecule, the “% visual injury Obs” value ([4]; S-Metolachlor 500 g/ha alone) was 0%, the “% visual injury Obs” value ([5]; S-Metolachlor 500 g/ha alone) was 0% and the “% visual injury Obs” value ([6]; S-Metolachlor 500 g/ha alone) was 0%. The “% visual injury Obs” value ([7]; S-Metolachlor 500 g/ha alone) was 0%, the “% visual injury Obs” value ([8]; S-Metolachlor 500 g/ha alone) was 0% and the “% visual injury Obs” value ([9]; S-Metolachlor 500 g/ha alone) was 0%. The “% visual injury Obs” value ([10]; S-Metolachlor 500 g/ha alone) was 0% and the “% visual injury Obs” value ([11]; S-Metolachlor 500 g/ha alone) was 0%.

— patent US20210386068A1, “COMPOSITIONS COMPRISING PYRIDINE CARBOXYLATE HERBICIDES AND VERY LONG CHAIN FATTY ACID (VLCFA) SYNTHESIS INHIBITOR HERBICIDES” (priority 2018, published 2021)
